One may read the Ki as a dissociation constant, usually derived from enzyme kinetics or from competition with a known ligand.

The source of these data is US8461328B2, “Tricyclic heterocyclic compounds, compositions and methods of use thereof” (Genentech, Inc., priority 2010, dated 2013).

What all share (assay type): biochemical
One experiment concerns the target T1, JAK1 (Homo sapiens, UniProt P23458).
T1 construct: made in house; host or cells: SF9 insect cells (baculovirus)
As to the kind of experiment: JAK1 inhibition (Table 4). Particulars: read-out: JAK1 Ki.

Another experiment deals with T2, JAK2 (Homo sapiens, UniProt O60674).
T2 construct: made in house; host or cells: SF9 insect cells (baculovirus)
T2 sequence (O60674 812-1132): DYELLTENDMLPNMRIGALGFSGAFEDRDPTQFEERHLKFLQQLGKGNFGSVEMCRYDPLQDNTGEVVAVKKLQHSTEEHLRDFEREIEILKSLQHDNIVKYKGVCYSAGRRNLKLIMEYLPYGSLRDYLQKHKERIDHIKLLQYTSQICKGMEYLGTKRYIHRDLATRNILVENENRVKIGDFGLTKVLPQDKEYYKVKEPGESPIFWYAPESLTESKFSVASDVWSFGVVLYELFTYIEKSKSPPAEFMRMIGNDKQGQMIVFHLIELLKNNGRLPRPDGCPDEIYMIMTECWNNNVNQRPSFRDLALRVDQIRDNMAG
As to the kind of experiment: JAK2 inhibition (Table 4). The settings on record: read-out: JAK2 Ki.

Another experiment concerns the target T3, JAK3 (Homo sapiens, UniProt P52333).
T3 construct: made in house; host or cells: SF9 insect cells (baculovirus)
In words: JAK3 inhibition (Table 4). The settings on record: read-out: JAK3 Ki.

The target of the next experiment is T4, TYK2 (Homo sapiens, UniProt P29597).
T4 construct: made in house; host or cells: SF9 insect cells (baculovirus)
T4 sequence (P29597 873-1187): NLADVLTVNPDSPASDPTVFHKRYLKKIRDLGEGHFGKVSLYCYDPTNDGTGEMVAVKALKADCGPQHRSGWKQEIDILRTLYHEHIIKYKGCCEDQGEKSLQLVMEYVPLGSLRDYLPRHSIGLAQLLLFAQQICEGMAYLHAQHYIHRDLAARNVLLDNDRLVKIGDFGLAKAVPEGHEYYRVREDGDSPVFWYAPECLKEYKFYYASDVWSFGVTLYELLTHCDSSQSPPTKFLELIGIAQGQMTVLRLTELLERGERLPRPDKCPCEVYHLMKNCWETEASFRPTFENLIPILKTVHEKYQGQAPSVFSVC
As to the kind of experiment: TYK2 inhibition (Table 4).

T3 sequence (P52333 783-1124): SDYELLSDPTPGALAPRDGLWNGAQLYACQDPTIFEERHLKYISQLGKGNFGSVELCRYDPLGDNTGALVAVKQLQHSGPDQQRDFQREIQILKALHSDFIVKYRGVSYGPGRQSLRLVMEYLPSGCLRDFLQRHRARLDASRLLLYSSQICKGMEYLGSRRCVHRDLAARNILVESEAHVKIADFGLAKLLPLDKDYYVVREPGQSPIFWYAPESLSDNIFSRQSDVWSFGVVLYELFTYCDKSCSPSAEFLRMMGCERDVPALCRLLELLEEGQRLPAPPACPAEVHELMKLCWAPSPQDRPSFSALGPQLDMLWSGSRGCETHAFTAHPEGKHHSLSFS
T1 sequence (P23458 852-1154): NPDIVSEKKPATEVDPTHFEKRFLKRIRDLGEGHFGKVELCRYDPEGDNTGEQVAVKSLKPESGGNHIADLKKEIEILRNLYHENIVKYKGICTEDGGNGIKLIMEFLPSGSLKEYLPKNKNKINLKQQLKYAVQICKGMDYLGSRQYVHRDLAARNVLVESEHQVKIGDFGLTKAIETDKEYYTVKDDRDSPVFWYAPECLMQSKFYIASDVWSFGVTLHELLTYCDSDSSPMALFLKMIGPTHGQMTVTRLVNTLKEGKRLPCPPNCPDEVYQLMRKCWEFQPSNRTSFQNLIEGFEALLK

In the case of `CN(C)C(=O)CCc1nc2cnc3[nH]ccc3c2n1C1CCCCC1` [Example 803, 3-(1-Cyclohexyl-1,6-dihydro-1,3,5,6-tetraaza-as-indacen-2-yl)-N,N-dimethyl-propionamide], the Ki worked out at 16.1 nM at JAK1, 44 nM at JAK2, 25.7 nM at JAK3 and 76.8 nM on TYK2.
Turning to `CCN1CCC(n2c(CCNC(C)=O)nc3cnc4[nH]ccc4c32)C(F)(F)C1` (centres unmarked) [Example 807, N-{2-[1-(1-Ethyl-3,3-difluoro-piperidin-4-yl)-1,6-dihydro-1,3,5,6-tetraaza-as-indacen-2-yl]-ethyl}-acetamide], the Ki at JAK1 came out at 3.78 nM; on JAK2, 34.7 nM; at JAK3, 15.9 nM; on TYK2, 257 nM.
As to `CCN1CC[C@@H](n2c(CCNS(C)(=O)=O)nc3cnc4[nH]ccc4c32)[C@@H](F)C1` [Example 808, N-{2-[1-((3S,4R)-1-Ethyl-3-fluoro-piperidin-4-yl)-1,6-dihydro-1,3,5,6-tetraaza-as-indacen-2-yl]-ethyl}-methanesulfonamide], the Ki at JAK1 came to 4.77 nM; at JAK2, 34.1 nM; at JAK3 it was 128 nM; on TYK2, 303 nM.
For `CCN1CC[C@@H](n2c(CCNS(=O)(=O)C3CC3)nc3cnc4[nH]ccc4c32)[C@@H](F)C1` [Example 809, Cyclopropanesulfonic acid {2-[1-((3S,4R)-1-ethyl-3-fluoro-piperidin-4-yl)-1,6-dihydro-1,3,5,6-tetraaza-as-indacen-2-yl]-ethyl}-amide] the same measures were 5.67 nM, 46.6 nM, 162 nM and 381 nM.
In the case of `CCN1CC[C@@H](n2c(CCNS(=O)(=O)C(C)C)nc3cnc4[nH]ccc4c32)[C@@H](F)C1` [Example 810, Propane-2-sulfonic acid {2-[1-((3S,4R)-1-ethyl-3-fluoro-piperidin-4-yl)-1,6-dihydro-1,3,5,6-tetraaza-as-indacen-2-yl]-ethyl}-amide], the Ki is 5.72 nM at JAK1, 44.7 nM at JAK2, 181 nM at JAK3 and 385 nM at TYK2.
Turning to `CCN1CC[C@@H](n2c(CCNC(C)=O)nc3cnc4[nH]ccc4c32)[C@@H](F)C1` [Example 811, N-{2-[1-((3S,4R)-1-Ethyl-3-fluoro-piperidin-4-yl)-1,6-dihydro-1,3,5,6-tetraaza-as-indacen-2-yl]-ethyl}-acetamide], the Ki came out at 6.78 nM at JAK1, 62.9 nM on JAK2, 130 nM on JAK3 and 519 nM at TYK2.
Take `N#CCCN1CCC(n2c(CC3CCOCC3)nc3cnc4[nH]ccc4c32)CC1` [Example 812, 3-{4-[2-(Tetrahydro-pyran-4-ylmethyl)-6H-1,3,5,6-tetraaza-as-indacen-1-yl]-piperidin-1-yl}-propionitrile]: the Ki was determined as 37.8 nM on JAK1, 213 nM on JAK2, 168 nM at JAK3 and 316 nM on TYK2.
For `N#CCCN1CCC(n2c(CC3CCCO3)nc3cnc4[nH]ccc4c32)CC1` (centres unmarked) [Example 813, 3-{4-[2-(Tetrahydro-furan-2-ylmethyl)-6H-1,3,5,6-tetraaza-as-indacen-1-yl]-piperidin-1-yl}-propionitrile] the same measures were 21.1 nM, 43 nM, 39.9 nM and 365 nM.
For `Cn1ccc(CCc2nc3cnc4[nH]ccc4c3n2C2CCN(CCC#N)CC2)n1` [Example 814, 3-(4-{2-[2-(1-Methyl-1H-pyrazol-3-yl)-ethyl]-6H-1,3,5,6-tetraaza-as-indacen-1-yl}-piperidin-1-yl)-propionitrile] the same measures were 11.2 nM, 88.4 nM, 90.7 nM and 580 nM.
For `CCc1nccn1CCc1nc2cnc3[nH]ccc3c2n1C1CCN(CCC#N)CC1` [Example 815, 3-(4-{2-[2-(2-Ethyl-imidazol-1-yl)-ethyl]-6H-1,3,5,6-tetraaza-as-indacen-1-yl}-piperidin-1-yl)-propionitrile] the same measures were 23.5 nM, 91.8 nM, 191 nM and 254 nM.
As for `CC(C)c1nccn1CCc1nc2cnc3[nH]ccc3c2n1C1CCN(CCC#N)CC1` [Example 816, 3-(4-{2-[2-(2-Isopropyl-imidazol-1-yl)-ethyl]-6H-1,3,5,6-tetraaza-as-indacen-1-yl}-piperidin-1-yl)-propionitrile], the Ki stood at 7.69 nM on JAK1, 19.6 nM at JAK2, 90.8 nM at JAK3 and 90.3 nM at TYK2.
On to `CC(F)(F)CCc1nc2cnc3[nH]ccc3c2n1C1CCN(CCC#N)CC1` [Example 817, 3-{4-[2-(3,3-Difluoro-butyl)-6H-1,3,5,6-tetraaza-as-indacen-1-yl]-piperidin-1-yl}-propionitrile], for which the Ki amounted to 8.58 nM on JAK1, 43 nM on JAK2, 63.7 nM on JAK3 and 207 nM at TYK2.
For `C[C@@H](O)c1nc2cnc3[nH]ccc3c2n1C1CCN(Cc2cnn(C)c2)CC1` [Example 818, (R)-1-{1-[1-(1-Methyl-1H-pyrazol-4-ylmethyl)-piperidin-4-yl]-1,6-dihydro-1,3,5,6-tetraaza-as-indacen-2-yl}-ethanol] the same measures were 9.45 nM, 383 nM, 117 nM and 1380 nM.
For `C[C@@H](O)c1nc2cnc3[nH]ccc3c2n1C1CCN(Cc2ccnn2C)CC1` [Example 819, (R)-1-{1-[1-(2-Methyl-2H-pyrazol-3-ylmethyl)-piperidin-4-yl]-1,6-dihydro-1,3,5,6-tetraaza-as-indacen-2-yl}-ethanol] the same measures were 10.9 nM, 61.8 nM, 44.9 nM and 161 nM.
For `CCn1nccc1CN1CCC(n2c([C@@H](C)O)nc3cnc4[nH]ccc4c32)CC1` [Example 820, (R)-1-{1-[1-(2-Ethyl-2H-pyrazol-3-ylmethyl)-piperidin-4-yl]-1,6-dihydro-1,3,5,6-tetraaza-as-indacen-2-yl}-ethanol] the same measures were 12 nM, 61 nM, 35.8 nM and 166 nM.
As to `Cc1cc(CN2CCC(n3c([C@@H](C)O)nc4cnc5[nH]ccc5c43)CC2)n(C)n1` [Example 821, (R)-1-{1-[1-(2,5-Dimethyl-2H-pyrazol-3-ylmethyl)-piperidin-4-yl]-1,6-dihydro-1,3,5,6-tetraaza-as-indacen-2-yl}-ethanol], the Ki on JAK1 turned out to be 17.7 nM; at JAK2, 125 nM; at JAK3 it was 55.3 nM; at TYK2, 473 nM.
For the molecule `CCn1cc(CN2CCC(n3c([C@@H](C)O)nc4cnc5[nH]ccc5c43)CC2)cn1` [Example 822, (R)-1-{1-[1-(1-Ethyl-1H-pyrazol-4-ylmethyl)-piperidin-4-yl]-1,6-dihydro-1,3,5,6-tetraaza-as-indacen-2-yl}-ethanol], the Ki was determined as 18.1 nM at JAK1, 894 nM at JAK2, 311 nM on JAK3 and 2810 nM on TYK2.
